Patent US5081289A, “Synthesis and isolation of nopaline and its analogues” (The University of Alabama in Birmingham, priority 1989, dated 1992)
In brackets after ≈: the same amount, converted by molar mass. Read-outs that look alike come from different tables or passages of the source.

How the values were obtained:
octopine dehydrogenase [1] = settings: known substrate specificity; cited from earlier work
octopine dehydrogenase [2] = test: Oxidation catalyzed by octopine dehydrogenase; format: biochemical, scallops (Pecten maximus); settings: nopaline / isonopaline as substrate
Solubility in H2O = format: physicochemical; settings: water, 22° C.
[3] = Conversion (cyclization) of nopaline / isonopaline to the pyro-derivatives; rate of formation; format: physicochemical; settings: for cyclization: above pH 5.5; for reaction rate constant: conversion to pyro-derivative; for first order rate constant, formation of pyrrolidonecarboxylic acid derivative: pH 3.2, 60° C.; for time to completion of conversion to the pyrrolidonecarboxylic acid derivative: pH 3.2, 120° C. (autoclave)
[4] = tested on: A. tumefaciens (strain C-58); test: Growth of A. tumefaciens (turbidity A650, doubling time) with compound as source of carbon and nitrogen; format: cell-based; settings: for Doubling Time: 0.0045 g/ml in control medium; for utilization as a source of carbon and nitrogen: preinduced and uninduced bacteria
Experimental: The minimal medium for bacterial growth was the mineral salt mixture described by Petit and Tempe, hereinbefore cited to which glucose was aded to make the final concentration 0.005 g/ml. The control medium was the mineral salt mixture from which the ammonium sulfate was omitted. In order to test whether they would support bacterial growth either nopaline, isonopaline, or the pyrrolidonecarboxylic acid derivative of nopaline or pyronopaline were added separately to the control medium to make the final concentration 0.0045 g/ml.
A single colony from a plate on minimal medium was adapted to liquid medium that contained nopaline. When visibly turbid, the nopaline liquid culture was innoculated (1% innoculum) into minimal liquid medium and into nopaline liquid medium. When turbid, these two cultures were used as inoculum to test the nopaline, isonopaline and pyronopaline in liquid culture media (20 ml in 125 ml flasks). After innoculation (1%), cultures were agitated on a rotary shaker at 1 cycle per second, and growth was monitored by measurement of the turbidity in a spectrophotometer. The turbidity (A650) readings were plotted on log paper and the doubling time was determined from the logarithmic portion of the growth curve (Table II).
Table II contains the results of experiments to test the ability of A. tumefaciens (strain C-58) to utilize the isomers and derivatives of nopaline as a source of carbon and nitrogen. […] The results are the same for both preinduced and uninduced bacteria. As expected the doubling time in minimal medium is greater than that in either nopaline or pyronopaline, since metabolism by the organism is more complex in the […] medium.

[5] = Stability in bacteria-free tumor extract; format: physicochemical; settings: pH 5.3, 10 days, room temperature
[6] = Reverse reaction (stability) of the pyrrolidonecarboxylic acid derivative of nopaline at 100° C.; format: physicochemical; settings: 100° C. in NaOH, Na2CO3 (both at 0.1M), or HCl (3M)

Row | SMILES | oxidation catalyzed by octopine dehydrogenase (octopine dehydrogenase [1]) | oxidation catalyzed by octopine dehydrogenase (octopine dehydrogenase [2]) | solubility (Solubility in H2O) | time for completed conversion to the pyro-derivative ([3]; 60° C., pH 3.2) | cyclization [3] | reaction rate constant [3] | first order rate constant, formation of pyrrolidonecarboxylic acid derivative [3] | time to completion of conversion to the pyrrolidonecarboxylic acid derivative [3] | Doubling Time ([4]; Preinduced Innoculum) | Doubling Time ([4]; Uninduced Innoculum) | utilization as a source of carbon and nitrogen [4] | change of concentration in tumor extract [5] | relative rate of reaction of nopaline vs isonopaline ([3]; 22° C. and 100° C.) | time of conversion to the pyro-derivative ([3]; 60° C.) | time for completed conversion to the pyro-derivative ([3]; 100° C., pH 0.0) | time for quantitative conversion to the pyro-derivative ([3]; 100° C., pH 3.2) | time of conversion to the pyro-derivative ([3]; 121° C.) | conversion to the pyro-derivatives ([3]; pH above approximately 5.5, 48 hours at 100° C.) | reverse reaction [6]
1 | C[C@@H](N[C@@H](CCCNC(=N)N)C(=O)O)C(=O)O [D-octopine] | catalyzes the oxidation of D-octopine | – | – | – | – | – | – | – | – | – | – | – | – | – | – | – | – | – | –
2 | N=C(N)NCCC[C@H](N[C@@H](CCC(=O)O)C(=O)O)C(=O)O [Isonopaline] | – | not that of isonopaline | 21.3 mg/mL (≈ 70 mM) | approximately 100 hours | neither nopaline nor isonopaline is demonstrable | 3.5e-08 s⁻¹ | 0.35×10^-7 S^-1 | 30 min | no growth | no growth | completely ineffective | – | – | – | – | – | – | – | –
3 | C[C@H](N[C@@H](CCCNC(=N)N)C(=O)O)C(=O)O [L-allooctopine] | not of L-allooctopine | – | – | – | – | – | – | – | – | – | – | – | – | – | – | – | – | – | –
4 | N=C(N)NCCC[C@H](N[C@H](CCC(=O)O)C(=O)O)C(=O)O [Nopaline, N-(4-((aminoiminomethyl)amino-)-1S-carboxybutyl)-2R-2-pentanedioic acid] | – | catalyzed the oxidation of nopaline | 6.3 mg/mL (≈ 20.7 mM) | – | neither nopaline nor isonopaline is demonstrable | 4.6e-07 s⁻¹ | 4.6×10^-7 S^-1 | 30 min | 2.8 h | 2.8 h | metabolized | did not change | faster reaction | 18 to 24 h | approximately 1.0 hours | approximately 2 hours | approximately 30 minutes | too slow to be readily measured | –
5 | N=C(N)NCCC[C@@H](C(=O)O)N1C(=O)CC[C@@H]1C(=O)O [Pyronopaline, N-(4-((aminoiminomethyl)amino)-1S-carboxybutyl)-2-pyrrolidone-5R-carboxylic acid] | – | – | 34.5 mg/mL (≈ 121 mM) | – | – | – | – | – | 3.1 h | 3.1 h | metabolized | did not change | – | – | – | – | – | – | No significant reverse reaction
